Measurements published in patent US7566453B2, “Methods for treating melanomas” (Chugai Seiyaku Kabushiki Kaisha, priority 1998, dated 2009).

System: KPMM2 cells
Conditions: fixed concentration of anti-human IL-6 receptor antibody; 0.1 or 1 ng/ml IL-6 (FIG. 1 to 6)
Protocol: The effects of anti-human IL-6 receptor antibody on sensitivity of KPMM2 cells to chemotherapeutic agents used for treatment of myeloma such as adriamycin (ADR, manufactured by Kyowa Hakko), vincristine (VCR, manufactured by Sigma Chemical Co.), and melphalan (L-PAM, manufactured by Sigma Chemical Co.) were evaluated.
KPMM2 is a multiple myeloma cell line derived from the ascites of a human patient with myeloma (see Japanese Unexamined Patent Publication (Kokai) No. 7-236475). […] The growth activity of the cell was evaluated by incorporation of ^3H-labeled thymidine (manufactured by Amersham) into the cell.
The KPMM2 cells that had been maintained were washed thoroughly with a fresh medium (RPMI1640 medium supplemented with 20% FBS), and then were adjusted to 4×10^5/ml, which was dispensed in 50 μl aliquots in a 96-well flat-bottomed microtiter plate (manufactured by Falcon). Furthermore, a medium containing a recombinant human IL-6 (Asagoe, Y. et al., Bio/Technology (1988) 6, 806-809), anti-human IL-6 receptor antibody hPM-1 (see the above reference example 1 or International Patent Application WO 92-15759), and the above chemotherapeutic agents or a fresh medium as control were added to make 200 μl in each well.
The plate was incubated at 37° C. for 4 days under the humidified condition in the presence of 5% CO2. At four hours before the end of incubation, 10 μl of ^3H-labeled thymidine solution (100 μCi/ml) was added to each well, and then incubated for more 4 hours. At the end of incubation, the cells were collected onto the glass filter (manufactured by Printed Filtermat A, WALLAC) using a harvester (Micro 96 Harvester, manufactured by SKATRON Instruments). The radioactivity incorporated into the cells was measured by a microbeta (1450 MicroBeta, manufactured by WALLAC).
The activity of growth inhibition on KPMM2 was expressed using the effect by a chemotherapeutic agent alone as the control. Using the incorporation of ^3H-labeled thymidine into the cell for each experimental group in which a each concentration of a chemotherapeutic agent was added as 100, the amount of ^3H-labeled thymidine incorporated into the cell in an experimental group in which anti-human IL-6 receptor antibody was simultaneously added was compared as an index.

Compound	relationship of growth index with the concentration of chemotherapeutic agent
CC[C@]1(O)C[C@H]2CN(CCc3c([nH]c4ccccc34)[C@@](C(=O)OC)(c3cc4c(cc3OC)N(C=O)[C@H]3[C@@](O)(C(=O)OC)[C@H](OC(C)=O)[C@]5(CC)C=CCN6CC[C@]43[C@@H]65)C2)C1 [vincristine]	almost constant regardless of their concentration
COc1cccc2c1C(=O)c1c(O)c3c(c(O)c1C2=O)C[C@@](O)(C(=O)CO)C[C@@H]3O[C@H]1C[C@H](N)[C@H](O)[C@H](C)O1 [adriamycin]	almost constant regardless of their concentration
